Data on 1 molecule can be found in US20260235618A1, “MICROBEADS WITH RATIOMETRIC LANTHANIDE ENCODING FOR DRUG SCREENING” (CZ Biohub SF, LLC, priority 2022, published 2026).

This assay deals with Cdc20 (Homo sapiens, UniProt Q12834). The assay can be described thus: Multiplexed binding assay of Cdc20 to peptides on spectrally encoded beads, with and without small molecule (per-bead fluorescence of labeled antibody). To be noted: bead-bound D-Box peptides; per-bead fluorescence intensity of fluorescently-labeled antibody recognizing bound Cdc20; vs control without Apcin (FIG. 2). The source says:
FIG. 2 provides data illustrating the effect of the small molecule Apcin on the binding between Cdc20 and different peptide sequences. Binding was quantified by measuring the per-bead fluorescence intensity of a fluorescently-labeled antibody that recognizes bound Cdc20. […] The control is the left bar for each of the peptides.
In one illustrative assay, a library of peptide-bound microbeads is generated by synthesizing binding site peptides directly on microbeads. Beads are pooled and then incubated with the protein of interest in the presence or absence of a modulator or candidate biding agent. The beads are then typically washed and the amount of signal from a label directly or indirectly attached to the protein of interest that is bound to each bead is determined. […]
For illustration, binding site peptides can be from proteins that are binding partners of any protein of interest, e.g., a signaling protein. […] In some embodiments, such a bead, or pool of such beads, is deposited in a compartment, e.g., a microwell plate such as a 96-well plate, with a signaling protein and a candidate agent to be evaluated, such as a small molecule. […] Use of multiple peptide sequences (e.g., for different binding sites or different affinities) can serve as an internal control and provide the ability to quantitatively assess a loss of signal without concerns regarding assay quality (e.g., FIG. 2). […]

Entries after “also recorded” stand apart in the source; their conditions may differ.

Sequence of Cdc20 (Q12834 whole entry, species assumed): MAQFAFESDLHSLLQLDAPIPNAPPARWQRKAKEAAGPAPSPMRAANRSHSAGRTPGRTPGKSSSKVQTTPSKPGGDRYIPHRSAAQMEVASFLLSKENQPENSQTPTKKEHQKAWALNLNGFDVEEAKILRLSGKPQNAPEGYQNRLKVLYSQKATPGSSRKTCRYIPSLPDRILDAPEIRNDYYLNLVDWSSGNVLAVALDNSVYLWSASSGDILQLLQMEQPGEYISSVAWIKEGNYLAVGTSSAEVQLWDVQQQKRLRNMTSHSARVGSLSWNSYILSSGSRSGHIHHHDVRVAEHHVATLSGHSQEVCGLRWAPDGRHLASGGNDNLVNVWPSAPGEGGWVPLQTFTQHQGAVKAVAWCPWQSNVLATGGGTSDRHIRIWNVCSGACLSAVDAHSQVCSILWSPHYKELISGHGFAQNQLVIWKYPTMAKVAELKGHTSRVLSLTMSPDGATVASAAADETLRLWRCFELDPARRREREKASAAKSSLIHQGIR

Turning to `Cc1ncc([N+](=O)[O-])n1CCOC(=O)NC(Nc1ncccn1)C(Cl)(Cl)Cl` (stereo not shown) [Apcin], the “Effect on binding between Cdc20 and D-Box-containing peptide sequences” value was “blocks the binding site between Cdc20 and D-Box-containing sequences; also recorded: selectively prevented the binding of Cdc20 to D-Box-containing peptides”.
